Results on 2 molecules are retold here after patent publication US20240100020A1, “MEDICINE FOR RELIEVING OR E[…] […] AND PREPARATION METHOD THEREFOR” (Shenzhen ScienCare Pharmaceutical Co., Ltd., priority 2020, published 2024).

The test system of the series is Rats. The experiment in a line: Addiction of tramadol and clonidine tablets and compound tablets (withdrawal after 30 days of administration). Particulars: for Number of jumps and body weight loss compared with the blank control group (in words): after 30 consecutive days of administration; for Body weight loss / Number of jumps: within one week after withdrawal. As to the method: Rats weighing approximately 150 g, half male and half female, were taken and randomly divided into 10 groups, that is, a blank control group, a morphine group, a tramadol group, a clonidine group, and compound tablet groups 1 to 6 (the rats in the compound tablet group 1 were administered with the compound tablets of Example 1, the rats in the compound tablet group 2 were administered with the compound tablets of Example 2, the rats in the compound tablet group 3 were administered with the compound tablets of Example 3, the rats in the compound tablet group 4 were administered with the compound tablets of Example 6, the rats in the compound tablet group 5 were administered with the compound tablets of Example 7, and the rats in the compound tablet group 6 were administered with the compound tablets of Example 10).
The rats were administered 3 times a day for 30 days. Administration methods were as follows: (1) the blank control group: PO (oral administration); and 0 mg/kg/time; (2) the morphine group: ip (intraperitoneal injection); and 5 mg/kg/time in week 1, 10 mg/kg/time in week 2, 20 mg/kg/time in week 3, and 30 mg/kg/time from day 22 to day 30; (3) the tramadol group: PO; and 25 mg/kg/time in week 1, 50 mg/kg/time in week 2, 100 mg/kg/time in week 3, and 200 mg/kg/time from day 22 to day 30; (4) the clonidine group: PO; and 0.075 mg/kg/time in week 1, 0.15 mg/kg/time in week 2, 0.3 mg/kg/time in week 3, and 0.6 mg/kg/time from day 22 to day 30; (5) the compound tablet groups: PO; and 25 mg/kg/time in week 1, 50 mg/kg/time in week 2, 100 mg/kg/time in week 3, and 200 mg/kg/time from day 22 to day 30. Withdrawal symptoms and body weight changes within one week after withdrawal of the rats in each group were observed.

Setting [1] is: ip 3 times a day for 30 days, 5/10/20/30 mg/kg/time rising by week.
[2] abbreviates: PO 3 times a day for 30 days, 25/50/100/200 mg/kg/time rising by week.

With `CN1CC[C@]23c4c5ccc(O)c4O[C@H]2[C@@H](O)C=C[C@H]3[C@H]1C5` [Morphine group, morphine], the “Number of jumps and body weight loss compared with the blank control group (in words)” value is “extremely significant differences”. Under setting [1], the “Body weight loss” value is reported as 10.1 ± 2.1 g and the Number of jumps came out at 20.1 ± 2.1.
On to `COc1cccc(C2(O)CCCCC2CN(C)C)c1` (stereo not drawn) [Tramadol group, tramadol], for which the “Number of jumps and body weight loss compared with the blank control group (in words)” value was “extremely significant differences”. Under setting [2], the “Body weight loss” value was found to be 9.6 ± 2.3 g and the Number of jumps worked out at 17.3 ± 1.9.
